Experimental data taken from PMC6437697 (Journal of Medicinal Chemistry, 2019).
pIC50: −log10 of the molar value.

Key:
Format in all cases: binding
[1] = target: T1, MEK6 (Homo sapiens, UniProt P52564); assay: KINOMEscan; settings: read-out: % control activity remaining
T1 construct: purchased Eurofins DiscoverX KINOMEscan

[2] = target: T2, VPS34 (Homo sapiens, UniProt Q8NEB9); assay: KINOMEscan; settings: read-out: % control activity remaining
T2 construct: purchased Eurofins DiscoverX KINOMEscan

[3] = target: T3, PKFYVE (Homo sapiens, UniProt Q9Y2I7); assay: KINOMEscan; settings: read-out: % control activity remaining
T3 construct: purchased Eurofins DiscoverX KINOMEscan

[4] = target: T4, GRK2 (Homo sapiens, UniProt P25098); assay: KINOMEscan; settings: read-out: % control activity remaining
T4 construct: purchased Eurofins DiscoverX KINOMEscan

[5] = target: IRE1α (Homo sapiens, UniProt O75460); assay: biochemical
[6] = target: T5, FLT3(D835V) (Homo sapiens, UniProt P36888, D835V); assay: KINOMEscan; settings: read-out: % control activity remaining
T5 construct: purchased Eurofins DiscoverX KINOMEscan

[7] = target: T6, GRK3 (Homo sapiens, UniProt P35626); assay: KINOMEscan; settings: read-out: % control activity remaining
T6 construct: purchased Eurofins DiscoverX KINOMEscan
T6 sequence (P35626 whole entry): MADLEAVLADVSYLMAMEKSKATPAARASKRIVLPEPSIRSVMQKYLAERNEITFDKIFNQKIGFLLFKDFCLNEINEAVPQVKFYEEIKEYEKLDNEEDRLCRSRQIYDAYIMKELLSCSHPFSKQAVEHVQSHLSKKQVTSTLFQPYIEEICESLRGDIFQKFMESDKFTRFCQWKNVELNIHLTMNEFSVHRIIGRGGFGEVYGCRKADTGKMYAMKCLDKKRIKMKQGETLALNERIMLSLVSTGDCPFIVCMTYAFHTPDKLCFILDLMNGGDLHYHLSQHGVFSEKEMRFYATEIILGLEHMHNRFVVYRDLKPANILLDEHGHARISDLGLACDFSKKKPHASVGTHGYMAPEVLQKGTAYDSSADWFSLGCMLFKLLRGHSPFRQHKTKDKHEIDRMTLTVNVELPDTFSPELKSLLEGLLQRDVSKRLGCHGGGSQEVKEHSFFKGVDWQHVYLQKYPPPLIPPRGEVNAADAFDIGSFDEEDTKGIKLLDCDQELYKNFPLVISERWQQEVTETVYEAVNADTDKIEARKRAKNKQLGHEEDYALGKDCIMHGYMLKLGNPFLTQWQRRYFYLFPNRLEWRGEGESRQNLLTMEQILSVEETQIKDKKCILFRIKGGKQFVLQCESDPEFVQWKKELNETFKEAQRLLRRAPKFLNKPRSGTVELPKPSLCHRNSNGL

T3 sequence (Q9Y2I7 whole entry): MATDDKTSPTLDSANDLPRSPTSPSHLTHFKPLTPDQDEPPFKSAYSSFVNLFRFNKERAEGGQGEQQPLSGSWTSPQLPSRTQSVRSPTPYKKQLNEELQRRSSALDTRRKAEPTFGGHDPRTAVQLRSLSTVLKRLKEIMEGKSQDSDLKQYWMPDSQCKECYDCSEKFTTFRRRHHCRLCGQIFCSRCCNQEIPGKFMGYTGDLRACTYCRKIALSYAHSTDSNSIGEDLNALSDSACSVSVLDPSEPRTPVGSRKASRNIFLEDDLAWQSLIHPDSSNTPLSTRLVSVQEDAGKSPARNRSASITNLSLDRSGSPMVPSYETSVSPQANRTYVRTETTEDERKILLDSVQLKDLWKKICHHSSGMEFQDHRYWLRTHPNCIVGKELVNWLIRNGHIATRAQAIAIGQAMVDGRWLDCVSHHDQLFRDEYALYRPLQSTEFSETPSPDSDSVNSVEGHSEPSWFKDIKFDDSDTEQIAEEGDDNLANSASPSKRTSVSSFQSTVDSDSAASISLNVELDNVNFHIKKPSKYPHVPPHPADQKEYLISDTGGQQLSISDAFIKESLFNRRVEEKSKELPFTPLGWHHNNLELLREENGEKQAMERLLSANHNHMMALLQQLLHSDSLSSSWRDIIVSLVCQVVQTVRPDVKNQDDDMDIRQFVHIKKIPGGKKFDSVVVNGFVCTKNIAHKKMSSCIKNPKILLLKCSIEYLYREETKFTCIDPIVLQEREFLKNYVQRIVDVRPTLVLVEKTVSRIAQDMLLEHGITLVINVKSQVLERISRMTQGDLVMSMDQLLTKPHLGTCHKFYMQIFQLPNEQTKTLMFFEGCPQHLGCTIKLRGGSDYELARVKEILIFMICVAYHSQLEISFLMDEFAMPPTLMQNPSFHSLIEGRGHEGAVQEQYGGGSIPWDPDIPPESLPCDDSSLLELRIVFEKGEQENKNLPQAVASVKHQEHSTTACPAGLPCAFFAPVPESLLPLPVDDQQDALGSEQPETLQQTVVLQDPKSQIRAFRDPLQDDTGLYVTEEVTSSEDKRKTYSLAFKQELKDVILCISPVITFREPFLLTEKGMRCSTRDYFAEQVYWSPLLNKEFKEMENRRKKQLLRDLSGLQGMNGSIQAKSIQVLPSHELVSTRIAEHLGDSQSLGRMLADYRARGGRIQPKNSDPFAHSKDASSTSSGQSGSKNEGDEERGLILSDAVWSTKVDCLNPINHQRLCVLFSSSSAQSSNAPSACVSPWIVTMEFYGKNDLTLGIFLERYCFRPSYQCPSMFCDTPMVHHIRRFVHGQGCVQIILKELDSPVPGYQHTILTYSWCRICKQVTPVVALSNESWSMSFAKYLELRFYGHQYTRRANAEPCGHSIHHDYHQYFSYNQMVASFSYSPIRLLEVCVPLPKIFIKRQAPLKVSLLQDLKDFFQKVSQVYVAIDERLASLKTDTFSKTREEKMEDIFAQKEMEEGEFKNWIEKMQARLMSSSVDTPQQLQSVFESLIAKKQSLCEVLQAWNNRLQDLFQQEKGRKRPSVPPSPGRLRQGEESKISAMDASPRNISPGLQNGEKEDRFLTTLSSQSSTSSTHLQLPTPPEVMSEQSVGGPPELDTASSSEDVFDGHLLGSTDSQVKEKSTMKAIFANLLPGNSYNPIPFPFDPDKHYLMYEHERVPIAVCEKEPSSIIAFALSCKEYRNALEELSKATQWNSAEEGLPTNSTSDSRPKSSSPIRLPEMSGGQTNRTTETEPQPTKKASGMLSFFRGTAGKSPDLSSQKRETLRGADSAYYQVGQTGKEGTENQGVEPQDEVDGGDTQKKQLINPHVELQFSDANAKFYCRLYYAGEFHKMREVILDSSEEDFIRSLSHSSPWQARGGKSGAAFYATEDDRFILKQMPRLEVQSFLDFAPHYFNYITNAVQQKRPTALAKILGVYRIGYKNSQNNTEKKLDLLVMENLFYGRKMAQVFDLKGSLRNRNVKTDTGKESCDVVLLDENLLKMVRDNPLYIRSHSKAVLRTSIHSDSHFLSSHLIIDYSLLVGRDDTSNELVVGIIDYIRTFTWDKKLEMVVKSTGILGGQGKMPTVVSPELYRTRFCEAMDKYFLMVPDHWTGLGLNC
T4 sequence (P25098 whole entry): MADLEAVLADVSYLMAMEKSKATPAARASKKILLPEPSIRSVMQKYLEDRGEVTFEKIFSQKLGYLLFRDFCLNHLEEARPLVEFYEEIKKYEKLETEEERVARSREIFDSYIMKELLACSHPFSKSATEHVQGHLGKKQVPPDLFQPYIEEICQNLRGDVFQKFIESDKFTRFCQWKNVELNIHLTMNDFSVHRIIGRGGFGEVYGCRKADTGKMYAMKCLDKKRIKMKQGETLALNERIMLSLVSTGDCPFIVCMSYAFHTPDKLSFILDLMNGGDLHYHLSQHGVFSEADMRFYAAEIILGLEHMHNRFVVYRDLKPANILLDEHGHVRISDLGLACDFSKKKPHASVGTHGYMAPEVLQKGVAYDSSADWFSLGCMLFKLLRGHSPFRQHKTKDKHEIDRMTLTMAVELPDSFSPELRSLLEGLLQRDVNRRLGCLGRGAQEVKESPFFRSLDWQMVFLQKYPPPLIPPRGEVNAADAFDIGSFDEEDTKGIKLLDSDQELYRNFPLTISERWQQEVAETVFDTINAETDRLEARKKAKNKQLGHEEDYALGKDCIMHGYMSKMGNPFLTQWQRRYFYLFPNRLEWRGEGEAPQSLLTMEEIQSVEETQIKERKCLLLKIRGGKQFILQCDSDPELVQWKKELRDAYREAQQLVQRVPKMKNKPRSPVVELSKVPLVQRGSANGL
T2 sequence (Q8NEB9 whole entry): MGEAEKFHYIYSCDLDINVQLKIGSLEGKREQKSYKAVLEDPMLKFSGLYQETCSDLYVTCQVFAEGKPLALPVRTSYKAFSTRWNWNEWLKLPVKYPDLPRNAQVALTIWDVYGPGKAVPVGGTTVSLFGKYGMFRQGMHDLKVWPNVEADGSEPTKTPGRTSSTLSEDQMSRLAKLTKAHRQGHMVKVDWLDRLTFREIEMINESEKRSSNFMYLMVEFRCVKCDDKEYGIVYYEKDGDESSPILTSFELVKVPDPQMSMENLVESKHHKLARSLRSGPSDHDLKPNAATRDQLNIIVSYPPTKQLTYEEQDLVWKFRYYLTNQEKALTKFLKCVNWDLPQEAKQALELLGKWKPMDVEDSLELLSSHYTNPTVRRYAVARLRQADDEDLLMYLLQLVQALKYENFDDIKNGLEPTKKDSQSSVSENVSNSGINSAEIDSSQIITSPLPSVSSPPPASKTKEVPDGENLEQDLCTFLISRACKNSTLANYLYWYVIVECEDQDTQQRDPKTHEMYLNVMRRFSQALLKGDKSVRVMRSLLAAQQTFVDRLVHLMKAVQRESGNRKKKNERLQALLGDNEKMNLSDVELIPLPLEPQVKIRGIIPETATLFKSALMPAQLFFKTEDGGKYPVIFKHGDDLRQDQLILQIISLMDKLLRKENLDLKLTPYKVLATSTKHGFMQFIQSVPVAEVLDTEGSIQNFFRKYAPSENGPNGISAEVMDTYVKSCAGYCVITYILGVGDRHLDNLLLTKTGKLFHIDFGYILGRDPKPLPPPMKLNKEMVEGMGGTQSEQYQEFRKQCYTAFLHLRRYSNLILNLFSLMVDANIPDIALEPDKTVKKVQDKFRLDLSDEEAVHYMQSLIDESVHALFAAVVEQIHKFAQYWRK
T1 sequence (P52564 whole entry): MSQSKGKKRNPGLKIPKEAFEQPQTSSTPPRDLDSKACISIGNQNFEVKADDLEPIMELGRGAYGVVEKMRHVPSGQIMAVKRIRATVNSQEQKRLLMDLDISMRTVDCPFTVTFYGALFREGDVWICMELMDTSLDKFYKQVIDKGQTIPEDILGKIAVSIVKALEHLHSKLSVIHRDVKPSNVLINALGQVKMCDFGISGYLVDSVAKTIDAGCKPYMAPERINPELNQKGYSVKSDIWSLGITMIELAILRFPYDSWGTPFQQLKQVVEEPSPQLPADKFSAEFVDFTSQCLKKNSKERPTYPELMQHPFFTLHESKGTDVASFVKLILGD

SMILES | remaining binding at 1 µM [1] | remaining binding at 1 µM [2] | remaining binding at 1 µM [3] | remaining binding at 1 µM [4] | pIC50 [5] | remaining binding at 1 µM [6] | remaining binding at 1 µM [7]
Clc1cc(NCC2CC2)c2ncc(-c3ccc4[nH]ncc4c3)n2n1 [compound 2, 6-Chloro-N-(cyclopropylmethyl)-3-(1H-indazol-5-yl)imidazo[1,2-b]pyridazin-8-amine] | 98% |  |  |  |  |  | 
O=C(CN1CCOCC1)N[C@H]1CC[C@H](Nc2cc(Cl)nn3c(-c4ccc5[nH]ncc5c4)cnc23)CC1 [compound 26] | 93% | 94% | 87% | 84% | 7.41 | 0% | 74%
CN1CCC(CNc2cc(Cl)nn3c(-c4cc5nc(Nc6ccccc6)[nH]c5cc4F)cnc23)CC1 [compound 31, 6-Chloro-3-(6-fluoro-2-(phenylamino)-1H-benzo[d]imidazol-5-yl)-N-((1-methylpiperidin-4-yl)methyl)imidazo[1,2-b]pyridazin-8-amine] |  | 97% | 26% | 100% |  | 69% | 91%
